Measured values taken from patent publication US20260166029A1, “METHODS AND SYSTEMS FOR TREATING DISEASE USING AN ATR/CHK1 SIGNALING PATHWAY INHIBITOR” (Acrivon Therapeutics, Inc., priority 2022, published 2026).
Read-outs that look alike come from different tables or passages of the source.

How the values were obtained:
HCT116 = test: Cell viability, sensitivity to prexasertib (Example 1); parameters: species or system human; details: HCT116 cell line; based on EC50 from prior publications
Protocol: (§1) Predicted response to prexasertib was compared to experimentally measured sensitivity to prexasertib. […] EC50 values of less than or equal to 1 μM were considered to be actual responders, while values of greater than 1 μM were considered to be actual non-responders.

PANC1 = test: as above; parameters: species or system human; details: PANC1 cell line; based on EC50 from prior publications
Protocol: as §1

AN3CA = test: Cell Titer Glo 2.0 viability, prexasertib alone or with gemcitabine, three days (Example 11); format: cell-based; details: Homo sapiens, AN3-CA, 72 h
Protocol: (§2) The present Example provides experimental evidence that treatment with gemcitabine sensitizes human cancer cell lines to treatment with prexasertib. A panel of human cancer cell lines were treated with various concentrations of prexasertib (0.17, 0.51, 1.5, 4.6, 13.7, 31.2, 123.5, 370.4, 1111, 3333, and 10000 nM) alone or in combination with various low dose concentrations of gemcitabine (0.53 and 2.7 nM). The panel of cell lines included ovarian, endometrial, bladder, breast, and prostate cancer cell lines. Two ovarian cancer cell lines (OVCAR3 and OV90) were used to generate acquired prexasertib resistant cells. For both cell lines, the parental cells (OVCAR3-P and OV90-P) and acquired prexasertib resistant cells (OVCAR3-R and OV90-R) were tested. Additionally, the panel included three cell lines that are naïve resistant to prexasertib (SW780, T47D, and PC3). After three days of treatment, cell viability relative to DMSO control was assessed using Cell Titer Glo 2.0 (Promega).
(§3) To determine whether gemcitabine and prexasertib acts synergistically, additively, or potentially antagonistically, the panel of human cancer cell lines were treated with various concentrations of prexasertib (0.17, 0.51, 1.5, 4.6, 13.7, 31.2, 123.5, 370.4, 1111, 3333, and 10000 nM) in combination with various concentrations of gemcitabine (1, 3, 13, 67, 333, 1667, 8333 nM). After three days treatment, cell viability relative to DMSO control was assessed using Cell Titer Glo 2.0 (Promega). Drug combination effect was evaluated using SynergyFinder 2.0, see Ianevski et al., Nucleic Acids Res., gkaa216 (2020), and is presented in Table 15 as a Bliss synergy score for each cell line. Bliss synergy scores greater than 10 are indicative of a synergistic effect between prexasertib and gemcitabine, while scores between 10 and −10 are indicative of an additive effect and scores less than −10 are indicative of an antagonistic effect. […] Taken together, the results of this Example support use of a combination of prexasertib and gemcitabine (e.g., low doses of gemcitabine) for treatment of predicted non-responders to prexasertib treatment.

KLE = test: as above; format: cell-based; details: Homo sapiens, 72 h, read-out: Prexasertib Relative IC50
Protocol: as §2, §3

OV90-R = test: as above; format: cell-based; details: Homo sapiens, 72 h, gemcitabine 0.53 nM, read-out: Prexasertib Relative IC50
Protocol: as §2, §3

OVCAR3-P = test: as above; format: cell-based; details: Homo sapiens, 72 h
Protocol: as §2, §3

OVCAR3-R = test: as above; format: cell-based; details: Homo sapiens, 72 h
Protocol: as §2, §3

PC3 = test: as above; format: cell-based; details: Homo sapiens, PC-3, 72 h, gemcitabine 0.53 nM, read-out: Prexasertib Relative IC50
Protocol: as §2, §3

T47D = test: as above; format: cell-based; details: Homo sapiens, 72 h, gemcitabine 0.53 nM, read-out: Prexasertib Relative IC50
Protocol: as §2, §3

ST1827 ovarian PDX tumor = test: Response to prexasertib treatment in ovarian PDX tumor model (Example 3); format: in vivo; parameters: key to Response type: CR = complete regression; PR = partial regression; S = stasis; G = growth
From the text: (§4) To evaluate whether the provided Response-Predictive Signature can predict response to prexasertib treatment, the predicted response for each PDX model was compared to an experimentally determined response to prexasertib treatment for the same PDX model. The experimentally measured response was quantified as follows: if a treated tumor reduced in size/volume, then the percent regression compared to an initial volume of a treated tumor was provided, if a treated tumor increased in size/volume, then a percent ratio of the treated tumor's growth was divided by control tumor (i.e., untreated tumor) growth (d[T/C]). Negative values for regression percentage indicate response to treatment with prexasertib, while positive values indicate continued growth and non-response to prexasertib treatment. The experimentally measured response was further categorized as complete regression (near −100% regression), partial regression (−50% to −100% regression), stasis (<20% median tumor growth to −50% regression), and growth (>20% median tumor growth).

ST182B ovarian PDX tumor = test: as above; format: in vivo; parameters: key to Response type: CR = complete regression; PR = partial regression; S = stasis; G = growth
From the text: as §4

ST2067 ovarian PDX tumor = test: as above; format: in vivo; parameters: key to Response type: CR = complete regression; PR = partial regression; S = stasis; G = growth
From the text: as §4

ST206B ovarian PDX tumor = test: as above; format: in vivo; parameters: key to Response type: CR = complete regression; PR = partial regression; S = stasis; G = growth
From the text: as §4

ST2249 ovarian PDX tumor = test: as above; format: in vivo; parameters: key to Response type: CR = complete regression; PR = partial regression; S = stasis; G = growth
From the text: as §4

ST260 ovarian PDX tumor = test: as above; format: in vivo; parameters: key to Response type: CR = complete regression; PR = partial regression; S = stasis; G = growth
From the text: as §4

[1] = gemcitabine 0 nM, read-out: Prexasertib Absolute IC50
[2] = gemcitabine 0 nM, read-out: Prexasertib Relative IC50
[3] = gemcitabine 0.53 nM, read-out: Prexasertib Absolute IC50
[4] = gemcitabine 0.53 nM, read-out: Prexasertib Relative IC50
[5] = gemcitabine 2.7 nM, read-out: Prexasertib Absolute IC50
[6] = gemcitabine 2.7 nM, read-out: Prexasertib Relative IC50

SMILES: COc1cccc(OCCCN)c1-c1cc(Nc2cnc(C#N)cn2)n[nH]1 [prexasertib, 5-(5-(2-(3-aminopropoxy)-6-methoxyphenyl)-1H-pyrazol-3-ylamino)pyrazine-2-carbonitrile]
- Actual response status (HCT116): R (EC50 values of less than or equal to 1 μM were considered to be actual responders)
- Actual response status (PANC1): NR (values of greater than 1 μM were considered to be actual non-responders)
- IC50 (AN3CA; [1]): 2.2 nM
- IC50 (AN3CA; [2]): 1.5 nM
- IC50 (AN3CA; [3]): 0.3 nM
- IC50 (AN3CA; [4]): 0.2 nM
- IC50 (KLE; gemcitabine 0 nM): 0.36 nM
- IC50 (KLE; gemcitabine 0.53 nM): 0.02 nM
- IC50 (OV90-R): 0.03 nM
- IC50 (OVCAR3-P; [1]): 16 nM
- IC50 (OVCAR3-P; [2]): 8 nM
- IC50 (OVCAR3-P; [3]): 3 nM
- IC50 (OVCAR3-P; [4]): 1.4 nM
- IC50 (OVCAR3-P; [5]): 0.2 nM
- IC50 (OVCAR3-P; [6]): 0.1 nM
- IC50 (OVCAR3-R; [3]): 106 nM
- IC50 (OVCAR3-R; [4]): 30 nM
- IC50 (OVCAR3-R; [5]): 6.2 nM
- IC50 (OVCAR3-R; [6]): 4 nM
- IC50 (PC3): 0.15 nM
- IC50 (T47D): 0.22 nM
- Response type (ST1827 ovarian PDX tumor): CR
- Best d[T/C], or Regression (ST1827 ovarian PDX tumor; negative = regression): −100%
- Response type (ST182B ovarian PDX tumor): CR
- Best d[T/C], or Regression (ST182B ovarian PDX tumor; negative = regression): −100%
- Response type (ST2067 ovarian PDX tumor): CR
- Best d[T/C], or Regression (ST2067 ovarian PDX tumor; negative = regression): −100%
- Response type (ST206B ovarian PDX tumor): CR
- Best d[T/C], or Regression (ST206B ovarian PDX tumor; negative = regression): −100%
- Response type (ST2249 ovarian PDX tumor): CR
- Best d[T/C], or Regression (ST2249 ovarian PDX tumor; negative = regression): −100%
- Response type (ST260 ovarian PDX tumor): CR
- Best d[T/C], or Regression (ST260 ovarian PDX tumor; negative = regression): −100%
